What all share (format): in vivo
The subject of one assay is Glutathione Peroxidase 3. The assay is described as follows: Intestinal gene expression (microarray): Glutathione Peroxidase 3. The conditions noted are these: mouse intestine; diet 1 ppm Se, 100 days; vs selenium deficient; all p < 0.01. The source says:
(§1) Animal Care. Male C57BL/6J mice were housed singly and started on the experimental diets described below immediately after weaning (21 days of age). The mice were maintained in the Shared Aging Rodent Facility at the William S. Middleton Memorial Veterans Administration Medical Center (Madison, Wis.). Temperature and humidity were maintained at constant levels. Room light was controlled to provide 12-hr cycles of light and dark.
(§2) Experimental diets were created by Harlan Teklad (Madison, Wis.). Selenium content of the diets was determined by Covance Inc. (Madison, Wis.). Five (5) animals were included in each of the following treatment groups: a diet deficient in selenium (SD); a diet supplemented with selenomethionine (SM, obtained from Sigma, St. Louis, Mo.) such that the final selenium content of the diet was one (1) part per million; a diet supplemented with sodium selenite (SS, Sigma) such that the final concentration of selenium in this diet was one (1) part per million; or a diet supplemented with the yeast selenium SEL-PLEX (SP, Alltech, Lexington, Ky), such that the final concentration of selenium in this diet was one (1) part per million. SEL-PLEX. […]
(§3) Tissue sample preparation and microarray analysis. […] For intestinal expression studies, the intestine was flushed twice with saline solution and small intestine was measured and divided in three equal segments. […]

For assay [1], the system named is Type 1 iodothyronine deiodinase. As to the kind of experiment: Intestinal gene expression: Type 1 iodothyronine deiodinase. The settings on record: mouse intestine; diet 1 ppm Se, 100 days; vs selenium deficient.
Description: as §1, §2, §3

A further assay concerns Selenoprotein W (SelW). The assay is described as follows: Intestinal gene expression: Selenoprotein W. The conditions noted are these: mouse intestine; diet 1 ppm Se, 100 days; vs selenium deficient.
Description: as §1, §2, §3

For assay [2], the system named is SelR (also known as Selenoprotein X1). As to the kind of experiment: Intestinal gene expression: SelR. The conditions noted are these: mouse intestine; diet 1 ppm Se, 100 days; vs selenium deficient.
Description: as §1, §2, §3

The subject of assay [3] is Complement component 1, q subcomponent binding protein, C1qbp. The assay is described as follows: Cerebral cortex gene expression: C1qbp. The settings on record: mouse cerebral cortex; diet 1 ppm Se, 100 days; vs selenium deficient; * = significant, p<0.01.
Description: as §1, §2, §3

Assay [4] concerns Complement component 1, q subcomponent, beta polypeptide, C1qbp. As to the kind of experiment: Cerebral cortex gene expression: C1q beta polypeptide. The settings on record: mouse cerebral cortex; diet 1 ppm Se, 100 days; vs selenium deficient; * = significant, p<0.01.
Description: as §1, §2, §3

Assay [5] relates to Complement component 1, r subcomponent, C1r. The assay is described as follows: Cerebral cortex gene expression: C1r. The settings on record: mouse cerebral cortex; diet 1 ppm Se, 100 days; vs selenium deficient; * = significant, p<0.01.
Description: as §1, §2, §3

For the next assay, the system named is Cathepsin B. As to the kind of experiment: Cerebral cortex gene expression: Cathepsin B. The settings on record: mouse cerebral cortex; diet 1 ppm Se, 100 days; * downregulation significant relative to Se-deficient mice.
Description: as §1, §2, §3

Another assay has as its system Cathepsin D. The assay is described as follows: Cerebral cortex gene expression: Cathepsin D. The conditions noted are these: mouse cerebral cortex; diet 1 ppm Se, 100 days; * downregulation significant relative to Se-deficient mice.
Description: as §1, §2, §3

The next assay relates to Cathepsin O. As to the kind of experiment: Cerebral cortex gene expression: Cathepsin O. The settings on record: mouse cerebral cortex; diet 1 ppm Se, 100 days; * downregulation significant relative to Se-deficient mice.
Description: as §1, §2, §3

In another assay the test system is Presenilin 1. The assay is described as follows: Cerebral cortex gene expression: Presenilin 1. The conditions noted are these: mouse cerebral cortex; diet 1 ppm Se, 100 days; * significant relative to Se-deficient animals, P < 0.01.
Description: as §1, §2, §3

For assay [6], the system named is Amyloid beta (A4) precursor protein-binding, family B, member 1 (Apbb1 or Fe65). As to the kind of experiment: Cerebral cortex gene expression: Apbb1/Fe65. The settings on record: mouse cerebral cortex; diet 1 ppm Se, 100 days; * significant relative to Se-deficient animals, P < 0.01.
Description: as §1, §2, §3

The test system of assay [7] is Amyloid beta (A4) precursor-like protein (Aplp 1). As to the kind of experiment: Cerebral cortex gene expression: Aplp 1. The conditions noted are these: mouse cerebral cortex; diet 1 ppm Se, 100 days; * significant relative to Se-deficient animals, P < 0.01.
Description: as §1, §2, §3

Assay [8] relates to Amyloid beta (A4) precursor protein-binding, family A, member 1(Apba1). The assay is described as follows: Cerebral cortex gene expression: Apba1. The settings on record: mouse cerebral cortex; diet 1 ppm Se, 100 days; * significant relative to Se-deficient animals, P < 0.01.
Description: as §1, §2, §3

Another assay concerns Junb. The assay is described as follows: Cerebral cortex gene expression: Junb. The settings on record: mouse brain (neocortex); diet 1 ppm Se, 100 days; * significant relative to Se-deficient animals.
Description: as §1, §2, §3

The subject of another assay is Gadd45b. As to the kind of experiment: Brain gene expression: Gadd45b. The settings on record: mouse brain; diet 1 ppm Se, 100 days; * significant relative to Se-deficient animals.
Description: as §1, §2, §3

The test system of assay [9] is Gadd45g1p (Growth arrest and DNA-damage inducible 45 gamma interacting protein). The assay is described as follows: Brain gene expression: Gadd45g1p. The settings on record: mouse brain; diet 1 ppm Se, 100 days; * significant relative to Se-deficient animals.
Description: as §1, §2, §3

Another assay concerns Gst pi 1 (Gstp1). As to the kind of experiment: Brain gene expression: Gstp1. The conditions noted are these: mouse brain; diet 1 ppm Se, 100 days; * significant relative to Se-deficient animals.
Description: as §1, §2, §3

For the next assay, the system named is Gst zeta 1 (Gstz1). The assay is described as follows: Brain gene expression: Gstz1. The conditions noted are these: mouse brain; diet 1 ppm Se, 100 days; * significant relative to Se-deficient animals.
Description: as §1, §2, §3

Another assay deals with Gst mu 7 (Gstm7). The assay is described as follows: Brain gene expression: Gstm7. The settings on record: mouse brain; diet 1 ppm Se, 100 days; * significant relative to Se-deficient animals.
Description: as §1, §2, §3

As to `O=[Se](O)O` [Sod-sel, sodium selenite], in the assay with Glutathione Peroxidase 3, the “fold change (FC) in Glutathione Peroxidase 3 gene expression” value is on record as 3.5 fold. Besides, the “Type 1 iodothyronine deiodinase expression level, fold increase” value in [1] came out at 2.8 fold. For the same compound, the “Selenoprotein W (SelW) expression, upregulated” value in the assay on Selenoprotein W (SelW) worked out at 5.1 fold. The “SelR gene expression, upregulated” value in assay [2] is 1.3 fold. The “FC C1qbp expression” value in assay [3] was determined as 1.11 fold. Moreover, in assay [4], the “FC Complement component 1, q subcomponent, beta polypeptide expression” value is reported as −1.35 fold. Moreover, the “FC C1r expression” value in assay [5] was −1.29 fold. In addition, in the assay on Cathepsin B, the “FC Cathepsin B expression” value is −1.13* fold. The “FC Cathepsin D expression” value in the assay on Cathepsin D is on record as −1.24* fold. In addition, the “FC Cathepsin O expression” value in the assay on Cathepsin O is recorded as −1.18 fold. Also, the “FC Presenilin 1 expression” value in the assay with Presenilin 1 is reported as −1.11 fold. The “FC Apbb1 (Fe65) expression” value in assay [6] was −1.32* fold. Moreover, the “FC Aplp 1 expression” value in assay [7] is −1.55* fold. Moreover, the “FC Apba1 expression” value in [8] is recorded as −1.41 fold. The “FC Junb expression” value in the assay with Junb is on record as −1.59 fold. Also, the “FC Gadd45b expression” value in the assay with Gadd45b was −1.39* fold. Moreover, in assay [9], the “FC Gadd45g1p expression” value is on record as −1.12 fold. The “FC Gstp1 expression” value in the assay on Gst pi 1 (Gstp1) is given as 1.02 fold. For the same compound, in the assay on Gst zeta 1 (Gstz1), the “FC Gstz1 expression” value is listed as −1.3 fold. In addition, in the assay with Gst mu 7 (Gstm7), the “FC Gstm7 expression” value is on record as −1.25* fold.

Take `C[Se]CC[C@H](N)C(=O)O` [SeM, selenomethionine]: the “fold change (FC) in Glutathione Peroxidase 3 gene expression” value in the assay with Glutathione Peroxidase 3 was found to be 4.6 fold. Besides, the “Type 1 iodothyronine deiodinase expression level, fold increase” value in assay [1] is recorded as 2.0 fold. Moreover, the “Selenoprotein W (SelW) expression, upregulated” value with Selenoprotein W (SelW) is on record as “not significantly altered”. Also, in assay [2], the “SelR gene expression, upregulated” value is given as “not significantly affected”. Also, the “FC C1qbp expression” value in [3] came out at 1.12 fold. For the same compound, the “FC Complement component 1, q subcomponent, beta polypeptide expression” value in assay [4] is reported as −1.15 fold. In addition, in assay [5], the “FC C1r expression” value amounted to 1.04 fold. Also, in the assay with Cathepsin B, the “FC Cathepsin B expression” value is on record as −1.03 fold. Moreover, the “FC Cathepsin D expression” value in the assay with Cathepsin D is on record as 1.02 fold. In the assay with Cathepsin O, the “FC Cathepsin O expression” value is recorded as −1.16 fold. For the same compound, the “FC Presenilin 1 expression” value in the assay with Presenilin 1 came out at 1.02 fold. The “FC Apbb1 (Fe65) expression” value in assay [6] amounted to 1.02 fold. Also, the “FC Aplp 1 expression” value in [7] is 1.02 fold. Besides, the “FC Apba1 expression” value in [8] was found to be 1.08 fold. The “FC Junb expression” value with Junb was −1.38 fold. Besides, in the assay with Gadd45b, the “FC Gadd45b expression” value is on record as −1.26 fold. Also, the “FC Gadd45g1p expression” value in assay [9] was 1.02 fold. Besides, the “FC Gstp1 expression” value with Gst pi 1 (Gstp1) is on record as −1.04 fold. Further, the “FC Gstz1 expression” value in the assay on Gst zeta 1 (Gstz1) is −1.08 fold. Moreover, the “FC Gstm7 expression” value in the assay with Gst mu 7 (Gstm7) is −1.05 fold.

The values above are taken from patent US20070155687A1, “Methods and compositions for altering cell function” (Alltech, Inc., priority 2005, published 2007).
